Reference: patent publication US20080166408A1, “Oral Dosage Form Comprising Rosiglitazone” (priority 2005, published 2008)

Assay: pH dependent solubility of Compound A
Type: physicochemical
Details: acidic conditions of the stomach (around pH 2) versus near neutral conditions of the lower intestine (around pH 7); Compound A and its salts or solvates, in particular the maleate salt

For `CN(CCOc1ccc(CC2SC(=O)NC2=O)cc1)c1ccccn1` (stereo not shown) [Compound A, 5-[4-[2-(N-methyl-N-(2 pyridyl)amino)ethoxy]benzyl]thiazolidine-2,4-dione], the pH dependent solubility was “more soluble in the acidic conditions of the stomach (around pH 2) than in the near neutral conditions of the lower intestine (around pH 7)”.
